Data: PMC6911004, “Fragment-based screening identifies molecules targeting the substrate-binding ankyrin repeat domains of tankyrase” (Scientific Reports, 2019)

How the values were obtained:
[1] = target: T1, TNKS2 ARC4 (Homo sapiens, UniProt Q9H2K2); test: T2 relaxation-edited ligand-observed NMR assay; format: binding; conditions: for T2 relaxation-edited: competition with 3BP2 TBM peptide: 3BP2 16-mer peptide 100 μM
T1 construct: The cell was filled with TNKS2 ARC4 (488–649); His6-GST; made in house; host or cells: E. coli
T1 sequence (Q9H2K2 488-649): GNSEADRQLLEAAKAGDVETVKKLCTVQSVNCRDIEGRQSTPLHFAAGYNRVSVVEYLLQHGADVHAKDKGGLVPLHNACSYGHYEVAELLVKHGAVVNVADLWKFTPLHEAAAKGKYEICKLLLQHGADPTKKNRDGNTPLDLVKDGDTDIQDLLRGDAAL
Experimental: We next sought close structural analogues of hit fragments 3 and 5 to gain early insights into structure-activity relationships (SAR) and binding modes of hit fragments. We initially tested the analogues using both relaxation-edited and waterLOGSY NMR assays against TNKS2 ARC4 (Table 1), followed by protein-observed NMR if binding was detected in both ligand-observed NMR experiments.
Fragments were dispensed in duplicate into a 384-well plate (250 nL, 100 mM stock in DMSO). Wells were backfilled with DMSO (2.25 μL). Tankyrase ARC protein (47.5 μL in 25 mM HEPES, pH 7.5, 100 mM NaCl, 2 mM TCEP, 10% D2O; 20 μM final protein concentration in the assay) was added to the ‘protein’ samples; buffer only (47.5 μL) was added to the ‘compound-only’ samples. Solutions were transferred to 1.7 mm NMR tubes using a Gilson liquid handling system. ^1H NMR spectra were recorded, with the DMSO and water signals dampened. A relaxation spin filter was applied at 400 ms[65]. Data were processed using Bruker Topspin 3.14. Lines were broadened with LB = 3.0, and the baseline was corrected between 6.0–10.0 ppm. The average integral for all peaks between 6.0–10.0 ppm was calculated, and the difference between compound-only and compound-plus-protein samples was compared. A reduction in signal integrals of ≥15% was classified as a hit. For competitive experiments, 3BP2 16-mer peptide (100 μM) was added, and the spectra were recorded and processed as above. The variability in signal reduction in the relaxation-edited experiment was previously determined as approximately ± 10% (Liu et al., unpublished observations).

[2] = target: T2, TNKS2 ARC5 (Homo sapiens, UniProt Q9H2K2); test: Differential scanning fluorimetry (DSF, thermal shift); format: binding; conditions: fragment 500 μM, 5% DMSO
T2 construct: followed by TNKS2 ARC5 (1 μL, 100 μM stock); His6-GST; made in house; host or cells: E. coli
Experimental: Therefore, we chose TNKS2 ARC5 for screening by DSF, anticipating the largest signal window for measuring changes in Tm upon fragment binding.
We screened 1869 compounds in duplicate at a concentration of 500 μM, which we considered a reasonable compromise between having a sufficiently high concentration to identify weak binders while minimising the likelihood of false positives through fragment precipitation/aggregation and non-specific binding. The final DMSO concentration was 5%. We calculated melting temperatures using both the inflection point and the maximum peak of first derivative data methods. Both methods generally agreed, unless the melt curve was biphasic or misshapen, with slightly lower variability for the […] Tm determination method (see Materials and Methods for experimental and analysis details).
We determined the melting temperature for the unbound ARC (Tm, 0) from the mean of 12 reference melting curves per plate, with 5% DMSO only. We calculated the change in melting temperature (ΔTm) by subtracting the mean Tm, 0 from Tm, compound. We tested compounds in duplicate, defining fragments as hits if they conferred a ΔTm outside two standard deviations (2σ) from the mean, in one or both replicates. To check for consistency between plates, we ran triplicate peptide controls; however, we excluded peptide ΔTm values from the calculation of the mean ΔTm to avoid skewing the results. We observed mean ΔTm values (IP/1st derivative methods) of −0.127/−0.331 °C and σ as 0.997/1.19 °C. A hit cut-off of 2σ gave absolute shifts of +1.87/+2.05 °C for compounds that stabilised and −2.13/−2.71 °C for compounds that destabilised the ARC (Fig. 2B).
For the screen, a C1000 thermal cycler (Bio-Rad) was used to record melt curves. SYPRO Orange was purchased as a 5000 × stock in DMSO from Sigma Aldrich. The ICR fragment library was available as 100 mM stocks in DMSO, and dispensed (25 nL) using an ECHO acoustic liquid handling system into white 384-well PCR plates (Framestar, 4titude). Wells were backfilled with DMSO (225 nL). Buffer (2.75 μL, 25 mM HEPES-NaOH pH 7.5, 100 mM NaCl, 2 mM TCEP) was added, followed by TNKS2 ARC5 (1 μL, 100 μM stock) and then SYPRO orange dye (1 μL, 25×). The plate was centrifuged after the addition of each reagent (1 min, 1000 × g). Final assay concentrations were as follows: TNKS2 ARC5 (20 μM); fragment (500 μM); SYPRO Orange dye (5×); DMSO (5% v/v) in a total volume of 5 μL. Peptide control wells (3BP2 TBM 16-mer, 200 μM, sequence LPHLQRSPPDGQSFRSW with C-terminal tryptophan added for photometric concentration measurements, the N-terminus acetylated and the C-terminus amide-capped) were plated in triplicate, and there were 12 blank wells per plate, with DMSO only (250 nL, 5% v/v). Melt curves were recorded from 20–95 °C, with the temperature ramped by 0.5 °C every 15 s. Data were analysed using Vortex (Dotmatics) software and melting temperatures calculated from both the inflection point and the maximum peak of 1st-derivative data. Data points were excluded if the melt curve was poor, i.e., if there was no fluorescence signal above baseline, high fluorescence intensity throughout, or if the melt curve was shallow (<1000 rfu difference between baseline and peak maximum). The unbound melting temperature was determined from the mean of 12 reference melting curves, with 5% DMSO only. The change in melting temperature (ΔTm) was calculated by subtracting the mean Tm, 0 from Tm, compound. Compounds were tested in duplicate, and fragments were defined as hits if they gave a ΔTm outwith 2 σ from the mean in one or both replicates.
For the experiment shown in Fig. 2A, ARC and 3BP2 TBM peptide concentrations were 20 and 200 μM, respectively, in 50 mM HEPES-NaOH pH 7.5, 100 mM NaCl, 2 mM TCEP and a total volume of 25 μL. SYPRO Orange was added at 5×. Data were recorded from 4–95 °C, with the temperature ramped by 0.5 °C every 15 s, using a CFX384 thermal cycler (Bio-Rad). […]

T2 sequence (Q9H2K2 641-800): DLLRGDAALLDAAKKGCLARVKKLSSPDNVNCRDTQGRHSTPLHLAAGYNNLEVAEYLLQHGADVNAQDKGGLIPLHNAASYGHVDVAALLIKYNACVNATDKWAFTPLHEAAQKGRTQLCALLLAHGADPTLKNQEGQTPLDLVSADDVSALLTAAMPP

SMILES	binding to TNKS2 ARC4 by ligand-observed NMR, in words ([1]; DSF hit validation)	ΔTm (°C) ([2]; method of Tm analysis not stated)	T2 relaxation-edited: competition with 3BP2 TBM peptide [1]	ΔTm calculated by the inflection point method ([2]; screen, biphasic melt curves) [°C]	ΔTm calculated by the 1st derivative method ([2]; screen, second peak used to calculate Tm) [°C]	TNKS2 ARC4 binding of analogues, SAR summary in words ([1]; relaxation-edited and waterLOGSY NMR)
O=C(NCc1ccco1)c1ccc(F)cc1 [compound 3]	bound	2.5	–	–	–	–
O=C(NCc1ccc(F)cc1)c1ccc2nccnc2c1 [compound 5]	–	–	competitive	1.6	8.1	–
O=C(NCc1ccco1)c1ccc2nccnc2c1 [compound 9]	–	–	competitive	–	–	preserved binding
